Results taken from PubChem BioAssay AID248 (DTP/NCI, 2004).
“And” between values parts separate entries of the source, which are not always exact repeats. Equal entries are not always repeated. Toxic doses and inconclusive results are not listed. No stated cut-off is given here; in the data, active means T/C of 150% or more; inactive means T/C below 125%.

Tested on: L1210 leukemia ip in BDF1 mice, survival T/C
Assay: NCI In Vivo Anticancer Drug Screen. Data for tumor model L1210 Leukemia (intraperitoneal) in B6D2F1 (BDF1) mice
Settings: endpoint: mean survival time, higher = longer survival
Outline: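 Transplanted-tumor mice were given test agent; controls received vehicle only. Survival readings from the two groups were divided (treated over control).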

[1] = dose: 100.0 mg/kg/injection, schedule: Q01DX009 (ip), vehicle: Klucel (hydroxypropylcellulose) (HPC)
[2] = dose: 200.0 mg/kg/injection, schedule: Q01DX009 (ip), vehicle: Klucel (hydroxypropylcellulose) (HPC)
[3] = dose: 400.0 mg/kg/injection, schedule: Q01DX009 (ip), vehicle: Klucel (hydroxypropylcellulose) (HPC)
[4] = dose: 100.0 mg/kg/injection, schedule: Q01DX001 (ip), vehicle: saline with Tween-80
[5] = dose: 200.0 mg/kg/injection, schedule: Q01DX001 (ip), vehicle: saline with Tween-80
[6] = dose: 100.0 mg/kg/injection, schedule: Q04DX002 (ip), vehicle: saline with Tween-80
[7] = dose: 200.0 mg/kg/injection, schedule: Q04DX002 (ip), vehicle: saline with Tween-80
[8] = dose: 400.0 mg/kg/injection, schedule: Q04DX002 (ip), vehicle: saline with Tween-80
[9] = dose: 100.0 mg/kg/injection, schedule: Q01DX001 (ip), vehicle: saline
[10] = dose: 200.0 mg/kg/injection, schedule: Q01DX001 (ip), vehicle: saline
[11] = dose: 400.0 mg/kg/injection, schedule: Q01DX001 (ip), vehicle: saline
[12] = dose: 100.0 mg/kg/injection, schedule: Q01DX001 (ip), vehicle: Klucel (hydroxypropylcellulose) (HPC)
[13] = dose: 100.0 mg/kg/injection, schedule: Q04DX003 (ip), vehicle: Klucel (hydroxypropylcellulose) (HPC)
[14] = dose: 200.0 mg/kg/injection, schedule: Q01DX001 (ip), vehicle: Klucel (hydroxypropylcellulose) (HPC)
[15] = dose: 200.0 mg/kg/injection, schedule: Q04DX003 (ip), vehicle: Klucel (hydroxypropylcellulose) (HPC)
[16] = dose: 400.0 mg/kg/injection, schedule: Q01DX001 (ip), vehicle: Klucel (hydroxypropylcellulose) (HPC)
[17] = dose: 400.0 mg/kg/injection, schedule: Q04DX003 (ip), vehicle: Klucel (hydroxypropylcellulose) (HPC)
[18] = dose: 200.0 mg/kg/injection, schedule: Q04DX003 (ip), vehicle: saline
[19] = dose: 400.0 mg/kg/injection, schedule: Q04DX003 (ip), vehicle: saline
[20] = dose: 100.0 mg/kg/injection, schedule: Q04DX003 (ip), vehicle: saline with Tween-80
[21] = dose: 200.0 mg/kg/injection, schedule: Q04DX003 (ip), vehicle: saline with Tween-80
[22] = dose: 400.0 mg/kg/injection, schedule: Q04DX003 (ip), vehicle: saline with Tween-80

Measured: T/C

O=c1[nH]cnc2c(C3OC(CO)C(O)C3O)[nH]nc12 (stereo not drawn)
inactive: dose: 10.0 mg/kg/injection, schedule: Q01DX015 (ip), vehicle: carboxymethylcellulose (CMC) 86 % of control | dose: 20.0 mg/kg/injection, schedule: Q01DX015 (ip), vehicle: carboxymethylcellulose (CMC) 88 % of control

CCOC(OCC)c1cc(=O)[nH]c(NC(C)=O)n1
inactive: [1] 101 % of control | [2] 101 % of control | [3] 106 % of control

CCOC(=O)NNOC(=O)CC
inactive: [4] 92 % of control | [5] 95 % of control

Cc1ccc(S(=O)(=O)N/N=C/C=C/c2ccccc2)cc1
inactive: [6] 103 % of control | [7] 93 % of control | [8] 93 % of control

O=C(O)C(O)C(O)C(O)C(O)CO.O=C(O)C(O)C(O)C(O)C(O)CO.O=C(O)C(O)C(O)C(O)C(O)CO.[Ga] (stereo not drawn)
inactive: dose: 50.0 mg/kg/injection, schedule: Q01DX001 (ip), vehicle: saline 101 % of control | [9] 103 % of control | [10] 112 % of control | [11] 100 % of control

COC(=O)C1CC23CCCC12CC3 (stereo not drawn)
inactive: dose: 50.0 mg/kg/injection, schedule: Q04DX002 (ip), vehicle: saline with Tween-80 92 % of control | [6] 103 % of control | [7] 92 % of control

CCCCCCCCCCN=C(N)N/C(N)=N/S(=O)(=O)c1ccc(OCCC)cc1
inactive: [6] 100 % of control | [7] 110 % of control | [8] 107 % of control

O=C(Nc1cccc(C(F)(F)F)c1)N(CCO)Cc1ccccc1
inactive: [12] 104 % of control | [1] 100 % of control and 109 % of control | [13] 103 % of control | [14] 105 % of control | [2] 100 % of control and 114 % of control | [15] 99 % of control | [16] 102 % of control | [3] 93 % of control and 107 % of control | [17] 95 % of control

CSc1ncc(CO)c(NC(C)(C)C)n1
inactive: dose: 100.0 mg/kg/injection, schedule: Q04DX003 (ip), vehicle: saline 96 % of control | [18] 100 % of control | [19] 100 % of control

Oc1ccccc1/C=N/c1ccccn1
inactive: dose: 25.0 mg/kg/injection, schedule: Q01DX009 (ip), vehicle: Klucel (hydroxypropylcellulose) (HPC) 106 % of control | dose: 50.0 mg/kg/injection, schedule: Q01DX009 (ip), vehicle: Klucel (hydroxypropylcellulose) (HPC) 97 % of control

CCC(=O)Nc1cc(C(C)C)ccc1C
inactive: [1] 107 % of control | [13] 97 % of control | [2] 110 % of control | [15] 97 % of control | [3] 103 % of control | [17] 104 % of control

CCCCC#CC(=O)OCC
inactive: dose: 100.0 mg/kg/injection, schedule: Q04DX002 (ip), vehicle: saline 97 % of control | dose: 200.0 mg/kg/injection, schedule: Q04DX002 (ip), vehicle: saline 97 % of control | dose: 400.0 mg/kg/injection, schedule: Q04DX002 (ip), vehicle: saline 112 % of control

CC1(C)C=C(C(Cl)c2ccccc2)C(=O)c2ccccc21 (stereo not drawn)
inactive: [13] 95 % of control | [15] 101 % of control | [17] 101 % of control

CCCN(CCC)N=Nc1ccccc1-c1nc(N)nc(N)n1
inactive: [13] 101 % of control | [15] 119 % of control | [17] 109 % of control

CC(C)CN(CC(C)C)c1ccc([N+](=O)[O-])cc1[N+](=O)[O-]
inactive: [20] 94 % of control | [21] 98 % of control | [22] 96 % of control

CCOC(=O)/C(C#N)=C1/CC2CCC1(C)OC2(C)C (stereo not drawn)
inactive: [13] 98 % of control | [15] 96 % of control | [17] 102 % of control

CC(C)C12CCC(=O)C=C1CCCC2OC(=O)c1ccccc1C(=O)O (stereo not drawn)
inactive: [20] 101 % of control | [21] 100 % of control

O=[N+]([O-])c1ccc(C[n+]2ccc3ccccc3c2)cc1
inactive: dose: 12.5 mg/kg/injection, schedule: Q01DX009 (ip), vehicle: saline 96 % of control | dose: 12.5 mg/kg/injection, schedule: Q04DX003 (ip), vehicle: saline 97 % of control | dose: 25.0 mg/kg/injection, schedule: Q01DX009 (ip), vehicle: saline 95 % of control | dose: 25.0 mg/kg/injection, schedule: Q04DX003 (ip), vehicle: saline 92 % of control | dose: 50.0 mg/kg/injection, schedule: Q01DX009 (ip), vehicle: saline 101 % of control | dose: 50.0 mg/kg/injection, schedule: Q04DX003 (ip), vehicle: saline 92 % of control

COC1=CCC23C(=O)C=CC(=O)C2(C1)C(=O)c1ccccc1C3=O (stereo not drawn)
inactive: dose: 3.12 mg/kg/injection, schedule: Q01DX005 (ip), vehicle: saline with Tween-80 110 % of control | dose: 6.25 mg/kg/injection, schedule: Q01DX005 (ip), vehicle: saline with Tween-80 103 % of control | dose: 12.5 mg/kg/injection, schedule: Q01DX005 (ip), vehicle: saline with Tween-80 97 % of control

c1ccc(CC2(Cc3ccccc3)N=C(c3ccccc3)C(c3ccccc3)=N2)cc1
inactive: [1] 103 % of control | [13] 102 % of control | [2] 97 % of control | [15] 103 % of control | [3] 98 % of control | [17] 97 % of control

CCCCCc1ccc2oc(=O)c3ccc(C)cc3c2c1O
inactive: [1] 90 % of control | [13] 97 % of control | [2] 93 % of control | [15] 98 % of control | [3] 97 % of control | [17] 97 % of control

C/C=C/c1ccc2oc(-c3ccc(OC4OC(C)C(O)C(O)C4O)cc3)c(C)c2c1 (stereo not drawn)
inactive: [12] 93 % of control | [14] 90 % of control | [16] 96 % of control

O=C1OCC/C1=C1\CCCO1
inactive: dose: 100.0 mg/kg/injection, schedule: Q01DX009 (ip), vehicle: saline with Tween-80 93 % of control | dose: 200.0 mg/kg/injection, schedule: Q01DX009 (ip), vehicle: saline with Tween-80 100 % of control | dose: 400.0 mg/kg/injection, schedule: Q01DX009 (ip), vehicle: saline with Tween-80 96 % of control

CSc1cc2c(cc1N)Cc1ccccc1-2
inactive: dose: 100.0 mg/kg/injection, schedule: Q01DX001 (ip), vehicle: carboxymethylcellulose (CMC) 98 % of control | dose: 200.0 mg/kg/injection, schedule: Q01DX001 (ip), vehicle: carboxymethylcellulose (CMC) 104 % of control | dose: 400.0 mg/kg/injection, schedule: Q01DX001 (ip), vehicle: carboxymethylcellulose (CMC) 115 % of control

CN(C(=O)Oc1ccccc1)c1ccc(S(=O)(=O)F)cc1
inactive: [4] 104 % of control | [5] 96 % of control | dose: 400.0 mg/kg/injection, schedule: Q01DX001 (ip), vehicle: saline with Tween-80 98 % of control

CC(C)C1(C(=O)N2CCCCC2=O)SCCCS1
inactive: [20] 94 % of control | [21] 90 % of control | [22] 92 % of control

Cc1c(O)cccc1N(C)C
inactive: [9] 112 % of control | dose: 100.0 mg/kg/injection, schedule: Q04DX003 (ip), vehicle: acetone 111 % of control | [10] 105 % of control | dose: 200.0 mg/kg/injection, schedule: Q04DX003 (ip), vehicle: acetone 106 % of control | [18] 88 % of control | [11] 91 % of control | dose: 400.0 mg/kg/injection, schedule: Q04DX003 (ip), vehicle: acetone 102 % of control | [19] 90 % of control

CCCCNC(=S)NC(=O)c1ccc(Br)cc1
inactive: dose: 100.0 mg/kg/injection, schedule: Q04DX002 (ip), vehicle: Klucel (hydroxypropylcellulose) (HPC) 97 % of control | dose: 200.0 mg/kg/injection, schedule: Q04DX002 (ip), vehicle: Klucel (hydroxypropylcellulose) (HPC) 97 % of control | dose: 400.0 mg/kg/injection, schedule: Q04DX002 (ip), vehicle: Klucel (hydroxypropylcellulose) (HPC) 90 % of control

[Cl][Sb]([c]1ccccc1)([c]1ccccc1)([c]1ccccc1)[c]1ccccc1
inactive: dose: 2.4 mg/kg/injection, schedule: Q01DX009 (ip), vehicle: saline 101 % of control | dose: 4.7 mg/kg/injection, schedule: Q01DX009 (ip), vehicle: saline 94 % of control | dose: 9.4 mg/kg/injection, schedule: Q01DX009 (ip), vehicle: saline 91 % of control

CN(C)c1ccc(C=C(C#N)C#N)cc1
inactive: [1] 100 % of control | [13] 96 % of control and 98 % of control | [2] 105 % of control | [15] 97 % of control and 102 % of control | [3] 94 % of control | [17] 93 % of control and 92 % of control
